One series concerns Plutella xylostella eggs. The series is described as follows: whole plant or invertebrate. It counts as in vivo. Here is the method:
The ovicidal efficacy of 2-acetyl-1-tetralone was also tested against Plutella eggs.

For a further series, the system named is lice eggs. Description: whole plant or invertebrate. The class given is in vivo. The following applies: for inhibition at 10000 µM: Pediculus humanus, read-out: Ovicidal activity %; for Activity class 0 = inactive 1 = low 2 = med 3 = high: listed as of 10 mM.
The test system of series [1] is Helicoverpa armigera eggs. Description: Egg hatching of Helicoverpa armigera. The following applies: for Number hatched / Number unhatched / % Inhibition: Table 13; for % Inhibition: relative to the control (100% MeOH).
Where [2] appears, read: Plutella xylostella, Plutella (P), 10 mM, read-out: Ovicidal activity %.
Setting [3] is: Table 14, 10 mM, dipped approximately 2 seconds, eggs on fine cloth.
Setting [4] is: Plutella (P), listed as of 10 mM.
Setting [5] is: Plutella xylostella, read-out: Ovicidal activity %.
Setting [6] is: Plutella (P), listed as of 1 mM.
Where [7] appears, read: Table 17, eggs laid on cloth, 1 mM in 1% diethoxyglycol.
The mark [8] stands for this setting: Table 10, eggs laid on cloth, 1 mM.
[9] abbreviates: Table 10, eggs laid on cloth, 10 mM.
The mark [10] stands for this setting: Table 11, eggs laid on parafilm, 1 mM.
[11] abbreviates: Table 11, eggs laid on parafilm, 10 mM.

Structures are written as SMILES. Where two headings read alike, the source gives them in different places.

In the case of `c1ccc(-c2ccc3ccccc3n2)nc1` [2-(2-pyridinyl)quinoline], the “effect on egg hatching of Plutella xylostella (words)” value in the series with Plutella xylostella eggs (10 mM) is “able to inhibit egg hatching”. Moreover, in the series with Plutella xylostella eggs (setting [2]), the inhibition at 10000 µM is 100%. In addition, the inhibition at 10000 µM in the series with Plutella xylostella eggs (Plutella xylostella, Table 14, 10 mM, relative to control (100% ETOH), read-out: % Inhibition) turned out to be 96%. In the series on Plutella xylostella eggs (setting [3]), this molecule returned a Number hatched of 2 and a Number unhatched of 56. In addition, in the series on Plutella xylostella eggs (in vivo), the “Logit calc pLD50” value was 3.3 and the “Pref pLD50” value is listed as above 2.

Turning to `CCCC(N)CO` [D-L-2-Amino-1-pentanol], the Ovicidal activity % with Plutella xylostella eggs (Plutella (P), 10 mM) is reported as 0.00%. Moreover, the “Activity class 0 = inactive 1 = low 2 = med 3 = high” value in the series with Plutella xylostella eggs (setting [4]) is 0 (A pLD50 value less than 2 is considered inactive (Class 0)). In the series on Plutella xylostella eggs (in vivo), the “Logit calc pLD50” value was 0.7 and the “Pref pLD50” value was below 2.

On to `CC(C)(C)c1ccc(C(=O)CC(=O)c2ccc(C(C)(C)C)cc2)cc1` [1,3-Bis-(4-tert-butyl-phenyl)-propane-1,3-dione], for which the inhibition at 10000 µM with Plutella xylostella eggs (setting [2]) turned out to be 0%. In the series with Plutella xylostella eggs (in vivo), the “Logit calc pLD50” value was 0.7 and the “Pref pLD50” value was below 2.

With `N[C@@H]1CCCC[C@H]1O` (relative stereo) [Trans-2-aminocyclohexanol], in the series on Plutella xylostella eggs (setting [5]), the inhibition at 10000 µM was determined as 0%.

Turning to `O=C(CC(=O)c1ccc(Cl)cc1)c1ccccc1` [1-(4-Chloro-phenyl)-3-phenyl-propane-1,3-dione], in the series on lice eggs (Lice (L), 10 mM), the inhibition at 10000 µM worked out at 0%.

`COc1ccc(C(=O)CC(=O)c2ccc(OC)cc2)cc1` [1,3-Bis-(4-methoxy-phenyl)-propane-1,3-dione]: the inhibition at 10000 µM in the series on Plutella xylostella eggs (setting [2]) worked out at 0%. In the series on Plutella xylostella eggs (in vivo), the “Logit calc pLD50” value is listed as 0.7 and the “Pref pLD50” value is reported as below 2.

In the case of `CC(=O)C1CCCCC1=O` (stereo not drawn) [2-Acetylcyclohexanone], the inhibition at 10000 µM in the series on Plutella xylostella eggs (setting [2]) was 0%. In addition, in the series with Plutella xylostella eggs (in vivo), the “Logit calc pLD50” value was 0.7 and the “Pref pLD50” value is on record as below 2.

Take `COC(=O)CN` [Glycine methyl ester]: the inhibition at 10000 µM with Plutella xylostella eggs (setting [2]) turned out to be 0%. In addition, in the series with Plutella xylostella eggs (in vivo), the “Logit calc pLD50” value was 0.7 and the “Pref pLD50” value was below 2.

In the series on Plutella xylostella eggs (in vivo), `NCC(O)c1ccccc1` (stereo not drawn) [2-Amino-1-phenyl ethanol] returned an Ovicidal activity % of 0.00%.

As for `CC(=O)CC(=O)c1ccccc1` [Benzoylacetone], in the series on Plutella xylostella eggs (Plutella xylostella, Plutella (P), 1 mM, read-out: Ovicidal activity %), the inhibition at 1000 µM is 0%. The inhibition at 10000 µM in the series on Plutella xylostella eggs (setting [2]) stood at 90%.

Regarding `CC(=O)NO` [Acetohydroxamic acid], the inhibition at 10000 µM in the series with Plutella xylostella eggs (setting [2]) is 0%. In addition, in the series on Plutella xylostella eggs (in vivo), the “Logit calc pLD50” value was 0.7 and the “Pref pLD50” value is below 2.

With `c1ccc(Nc2ccccn2)nc1` [2,2-dipyridylamine], the Ovicidal activity % was 0.00% with Plutella xylostella eggs (Plutella (P), 1 mM) and 100% in the series with Plutella xylostella eggs (Plutella (P), 10 mM). The “Activity class 0 = inactive 1 = low 2 = med 3 = high” value is 0 (A pLD50 value less than 2 is considered inactive (Class 0)) with Plutella xylostella eggs (setting [6]); 1 (a pLD50 value between 2 and 3 is considered weakly active (Class 1)) with Plutella xylostella eggs (setting [4]).

For the molecule `O=C(CC(=O)c1ccccc1)c1ccccc1` [Dibenzoyl methane], the inhibition at 10000 µM in the series with Plutella xylostella eggs (setting [5]) came out at 90%.

Consider `COC(=O)c1ccc(-c2ccc(C(=O)OC)cn2)nc1` [2,2′ Bipyridinyl-5,5′-dicarboxylic acid dimethyl ester], for which the “Activity class 0 = inactive 1 = low 2 = med 3 = high” value in the series with lice eggs (Lice (L)) was 0 (A pLD50 value less than 2 is considered inactive (Class 0)). Besides, the inhibition at 10000 µM with lice eggs (Lice (L), 10 mM) was 0%.

`CCOC(=O)CNC(C)=O` [Ethyl-acetaimidoacetate]: the Ovicidal activity % in the series on Plutella xylostella eggs (Plutella (P), 10 mM) was determined as 0.00%. Besides, in the series with Plutella xylostella eggs (setting [4]), the “Activity class 0 = inactive 1 = low 2 = med 3 = high” value was 0 (A pLD50 value less than 2 is considered inactive (Class 0)).

`c1ccc(CNCc2ccccn2)nc1` [Di(2-picolyl) amine]: in the series on lice eggs (Lice (L)), the “Activity class 0 = inactive 1 = low 2 = med 3 = high” value is 0 (A pLD50 value less than 2 is considered inactive (Class 0)). For the same molecule, the inhibition at 10000 µM in the series on lice eggs turned out to be 0%.

`Cc1cc(C)cc(C(=O)CC(=O)c2cc(C)cc(C)c2)c1` [1,3-Bis-(3,5-dimethyl-phenyl)-propane-1,3-dione]: the inhibition at 10000 µM with Plutella xylostella eggs (setting [2]) turned out to be 0%. In the series on Plutella xylostella eggs (in vivo), the “Logit calc pLD50” value is 0.7 and the “Pref pLD50” value is below 2.

In the case of `Cc1ccccn1` [2-Picoline], the “Activity class 0 = inactive 1 = low 2 = med 3 = high” value in the series on lice eggs (Lice (L)) was 0 (A pLD50 value less than 2 is considered inactive (Class 0)). In addition, the inhibition at 10000 µM with lice eggs (Lice (L), 10 mM) came out at 0%.

`c1ccc(-c2cccc(-c3ccccn3)n2)nc1` [2,2′,6,2″-terpyridine]: the Ovicidal activity % in the series on lice eggs (Lice (L), 10 mM) is 0.00%; in the series with Plutella xylostella eggs (Plutella (P), 1 mM), 100%. Besides, the “Activity class 0 = inactive 1 = low 2 = med 3 = high” value with lice eggs (Lice (L)) is 0 (A pLD50 value less than 2 is considered inactive (Class 0)); in the series on Plutella xylostella eggs (setting [6]), 3 (a pLD50 greater than 4 is considered strongly active (Class 3)). Besides, in the series on Plutella xylostella eggs (1 mM, 1% diethoxyglycol), the “inhibition of Plutella egg hatching” value is “complete inhibition”. The Number hatched in the series with Plutella xylostella eggs (setting [7]) is recorded as 0. This molecule had a Number unhatched in the series on Plutella xylostella eggs (setting [7]) of 46. Also, the “% Inhibition” value in the series with Plutella xylostella eggs (Table 17, 1 mM, relative to control (1% diethoxyglycol)) is recorded as 100%.

On to `O=C(CC(=O)c1cccnc1)c1cccnc1` [1,3-dipyridin-3-yl-propane-1,3-dione], for which the inhibition at 10000 µM in the series with Plutella xylostella eggs (setting [2]) was determined as 0%. Further, in the series on Plutella xylostella eggs (in vivo), the “Logit calc pLD50” value is 0.7 and the “Pref pLD50” value was below 2.

The molecule `O=C(NO)c1ccccc1` [Benzohydroxaminic acid] returned an Ovicidal activity % in the series with Plutella xylostella eggs (Plutella (P), 10 mM) of 0.00%. Besides, the “Activity class 0 = inactive 1 = low 2 = med 3 = high” value with Plutella xylostella eggs (setting [4]) was 0 (A pLD50 value less than 2 is considered inactive (Class 0)).

Consider `Cc1ccnc(-c2cc(C)ccn2)c1` [4,4′-dimethyl-2,2′-dipyridyl], for which the “effect on egg hatching of Plutella xylostella (words)” value in the series with Plutella xylostella eggs (10 and 1 mM) is “significantly inhibit egg hatching”. The Ovicidal activity % in the series with Plutella xylostella eggs (Plutella (P), 0.1 mM) is 65.00%; in the series with Plutella xylostella eggs (Plutella (P), 1 mM), 100.00%; in the series on Plutella xylostella eggs (Plutella (P), 10 mM), 100.00%. Besides, the “Activity class 0 = inactive 1 = low 2 = med 3 = high” value in the series on Plutella xylostella eggs (setting [6]) is recorded as 3 (a pLD50 greater than 4 is considered strongly active (Class 3)). Further, the Number hatched with Plutella xylostella eggs (setting [8]) is on record as 0; with Plutella xylostella eggs (setting [9]) it was 0; in the series with Plutella xylostella eggs (setting [10]) it was 10; in the series with Plutella xylostella eggs (setting [11]), 0; in series [1] (1 mM) it was 23; in series [1] (10 mM) it was 8. The Number unhatched with Plutella xylostella eggs (setting [8]) is 30; in the series with Plutella xylostella eggs (setting [9]), 36; in the series on Plutella xylostella eggs (setting [10]), 107; in the series on Plutella xylostella eggs (setting [11]), 139; in series [1] (1 mM), 29; in series [1] (10 mM) it was 43. Besides, the “% Inhibition” value came out at 100% in the series on Plutella xylostella eggs (Table 10, eggs laid on cloth, 1 mM, relative to controls); 100% in the series with Plutella xylostella eggs (Table 10, eggs laid on cloth, 10 mM, relative to controls); 91% with Plutella xylostella eggs (Table 11, eggs laid on parafilm, 1 mM, relative to controls); 100% with Plutella xylostella eggs (Table 11, eggs laid on parafilm, 10 mM, relative to controls); 66% in series [1] (1 mM); 84% in series [1] (10 mM). Also, the “effect on egg hatching of Helicoverpa armigera (words)” value in series [1] (1 mM) and in series [1] (10 mM) was “significant inhibition of egg hatching” each time.

`Cc1nc(-c2nc(C)c(C)[nH]2)[nH]c1C` [2,2′-Bis(4,5-dimethylimidazole)]: the Ovicidal activity % in the series with lice eggs (Lice (L), 10 mM) turned out to be 0.00%. Besides, the “Activity class 0 = inactive 1 = low 2 = med 3 = high” value with lice eggs (Lice (L)) was 0 (A pLD50 value less than 2 is considered inactive (Class 0)).

Source of the values: patent US20070254907A1, “COMPOSITIONS AND METHODS FOR CONTROLLING INFESTATION” (HATCHTECH PTY LTD, priority 2003, published 2007).
